Assay results from ChEMBL document CHEMBL1201862, “PubChem BioAssay data set” (2004).
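Protocol summary: plate cells (96-well), add compound at 5 concentrations, incubate 48 h, interpolate endpoints linearly. At the GI50, growth is halved.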 Calls of active or inactive are those of the source. No stated cut-off is given here; in the data, active = GI50 up to about 1.1 µM and inactive = higher.

Assays:
Assay in all cases: NCI tumour cell line growth inhibition, 48 h
786-0 = test system: 786-0
A498 = test system: A498
A549 = test system: A549
ACHN = test system: ACHN
BT-549 = test system: BT-549
CAKI-1 = test system: CAKI-1
CCRF-CEM = test system: CCRF-CEM
COLO 205 = test system: COLO 205
DU-145 = test system: DU-145
EKVX = test system: EKVX
HCC 2998 = test system: HCC 2998
HCT-116 = test system: HCT-116
HCT-15 = test system: HCT-15
HL-60 = test system: HL-60
HOP-62 = test system: HOP-62
HOP-92 = test system: HOP-92
HT-29 = test system: HT-29
Hs-578T = test system: Hs-578T
IGROV-1 = test system: IGROV-1
K562 = test system: K562
KM12 = test system: KM12
LOX IMVI = test system: LOX IMVI
M14 = test system: M14
MCF7 = test system: MCF7
MDA-MB-231 = test system: MDA-MB-231
MDA-MB-435 = test system: MDA-MB-435
MDA-N = test system: MDA-N
MOLT-4 = test system: MOLT-4
Malme-3M = test system: Malme-3M
NCI-H226 = test system: NCI-H226
NCI-H23 = test system: NCI-H23
NCI-H460 = test system: NCI-H460
NCI-H522 = test system: NCI-H522
NCI/ADR-RES = test system: NCI/ADR-RES
OVCAR-3 = test system: OVCAR-3
OVCAR-4 = test system: OVCAR-4
OVCAR-5 = test system: OVCAR-5
OVCAR-8 = test system: OVCAR-8
PC-3 = test system: PC-3
RPMI-8226 = test system: RPMI-8226
RXF 393 = test system: RXF 393
SF-268 = test system: SF-268
SF-295 = test system: SF-295
SF-539 = test system: SF-539
SK-MEL-28 = test system: SK-MEL-28
SK-MEL-2 = test system: SK-MEL-2
SK-MEL-5 = test system: SK-MEL-5
SK-OV-3 = test system: SK-OV-3
SN12C = test system: SN12C
SNB-19 = test system: SNB-19
SNB-75 = test system: SNB-75
SR = test system: SR
SW-620 = test system: SW-620
T47D = test system: T47D
TK-10 = test system: TK-10
U-251 = test system: U-251
UACC-257 = test system: UACC-257
UACC-62 = test system: UACC-62
UO-31 = test system: UO-31

Measured: GI50

CCC1C(c2cc(OC)c(OC)c(OC)c2)c2cc3c(cc2OC1N1CCCC1)OCO3 (centres undefined)
0.984 µM: HCT-15
inactive: 786-0 3.07 µM | A498 3.15 µM | A549 2.76 µM | ACHN 4.03 µM | BT-549 4.06 µM | CCRF-CEM 1.16 µM | COLO 205 1.55 µM | DU-145 2.37 µM | EKVX 7.28 µM | HCC 2998 2.74 µM | HCT-116 1.32 µM | HL-60 1.57 µM | HOP-62 2.82 µM | HOP-92 4.18 µM | HT-29 1.37 µM | Hs-578T 1.36 µM | IGROV-1 2.62 µM | LOX IMVI 2.57 µM | M14 1.75 µM | MDA-MB-231 3.83 µM | MOLT-4 1.95 µM | Malme-3M 6.98 µM | NCI-H226 3.08 µM | NCI-H23 4.46 µM | NCI-H460 2.84 µM | NCI-H522 2.29 µM | NCI/ADR-RES 1.41 µM | OVCAR-3 1.45 µM | OVCAR-4 12.7 µM | OVCAR-5 8.49 µM | OVCAR-8 4.07 µM | PC-3 1.48 µM | RPMI-8226 3.05 µM | RXF 393 1.45 µM | SF-268 4.58 µM | SF-539 1.39 µM | SK-MEL-28 8.87 µM | SK-MEL-2 1.98 µM | SK-OV-3 3.42 µM | SN12C 4.36 µM | SNB-19 2.74 µM | SNB-75 2.46 µM | SR 1.17 µM | SW-620 1.21 µM | T47D 3.78 µM | TK-10 7.91 µM | U-251 2.56 µM | UACC-257 4.59 µM | UACC-62 1.31 µM | UO-31 4.1 µM
active: CAKI-1 0.598 µM | K562 0.752 µM | KM12 0.743 µM | MCF7 0.542 µM | MDA-MB-435 0.277 µM | MDA-N 0.231 µM | SF-295 1.07 µM | SK-MEL-5 0.678 µM
